Measured values from PubChem BioAssay AID1259407 (Chemical Carcinogenesis Research Information System (CCRIS), 2018).
Calls of active or inactive are those of the source. How the calls were made is not given here.

Test system: CCRIS mutagenicity, Ames/micronucleus/aberration tests
Assay: CCRIS mutagenicity studies
[1] = Test System: AMES SALMONELLA TYPHIMURIUM, Strain/Indicator: TA100, Metabolic Activation: NONE, Method: STANDARD PLATE
[2] = Test System: AMES SALMONELLA TYPHIMURIUM, Strain/Indicator: TA100, Metabolic Activation: RAT, LIVER, S-9, AROCLOR 1254, Method: STANDARD PLATE

O=Cc1ccco1
mutagenic call (Test System: AMES SALMONELLA TYPHIMURIUM, Strain/Indicator: TA97, Metabolic Activation: NONE, Method: PREINCUBATION): inactive; negative
mutagenic call (Test System: AMES SALMONELLA TYPHIMURIUM, Strain/Indicator: TA97, Metabolic Activation: RAT, LIVER, S-9, AROCLOR 1254, Method: PREINCUBATION): inactive; negative
mutagenic call (Test System: AMES SALMONELLA TYPHIMURIUM, Strain/Indicator: TA98, Metabolic Activation: HAMSTER, LIVER, S-9, AROCLOR 1254 (10%), Method: PREINCUBATION): inactive; negative
mutagenic call (Test System: AMES SALMONELLA TYPHIMURIUM, Strain/Indicator: TA98, Metabolic Activation: HAMSTER, LIVER, S-9, AROCLOR 1254, Method: PREINCUBATION): inactive; negative
mutagenic call (Test System: AMES SALMONELLA TYPHIMURIUM, Strain/Indicator: TA98, Metabolic Activation: NONE, Method: STANDARD PLATE): inactive; negative
mutagenic call (Test System: AMES SALMONELLA TYPHIMURIUM, Strain/Indicator: TA98, Metabolic Activation: RAT LIVER S-9, PHENOBARBITAL AND BETA-NAPHTHOFLAVONE, Method: PREINCUBATION): inactive; negative
mutagenic call (Test System: AMES SALMONELLA TYPHIMURIUM, Strain/Indicator: TA98, Metabolic Activation: RAT, LIVER, S-9, AROCLOR 1254 (10%), Method: PREINCUBATION): inactive; negative
mutagenic call (Test System: AMES SALMONELLA TYPHIMURIUM, Strain/Indicator: TA98, Metabolic Activation: RAT, LIVER, S-9, AROCLOR 1254, Method: PREINCUBATION): inactive; negative
mutagenic call (Test System: AMES SALMONELLA TYPHIMURIUM, Strain/Indicator: TA98, Metabolic Activation: S-9, Method: STANDARD PLATE): inactive; negative
mutagenic call (Test System: AMES SALMONELLA TYPHIMURIUM, Strain/Indicator: TA100, Metabolic Activation: HAMSTER, LIVER, S-9, AROCLOR 1254 (10%), Method: PREINCUBATION): inactive; negative
mutagenic call (Test System: AMES SALMONELLA TYPHIMURIUM, Strain/Indicator: TA100, Metabolic Activation: HAMSTER, LIVER, S-9, AROCLOR 1254, Method: PREINCUBATION): inactive; negative
mutagenic call [1]: inactive; negative
mutagenic call (Test System: AMES SALMONELLA TYPHIMURIUM, Strain/Indicator: TA100, Metabolic Activation: RAT LIVER S-9, AROCLOR 1254, Method: PREINCUBATION): inactive; negative
mutagenic call (Test System: AMES SALMONELLA TYPHIMURIUM, Strain/Indicator: TA100, Metabolic Activation: RAT LIVER S-9, PHENOBARBITAL AND BETA-NAPHTHOFLAVONE, Method: PREINCUBATION): inactive; negative
mutagenic call (Test System: AMES SALMONELLA TYPHIMURIUM, Strain/Indicator: TA100, Metabolic Activation: RAT, LIVER, S-9, AROCLOR 1254 (10%), Method: PREINCUBATION): inactive; negative
mutagenic call (Test System: AMES SALMONELLA TYPHIMURIUM, Strain/Indicator: TA100, Metabolic Activation: RAT, LIVER, S-9, AROCLOR 1254, Method: PREINCUBATION): inactive; negative
mutagenic call [2]: active; positive
mutagenic call (Test System: AMES SALMONELLA TYPHIMURIUM, Strain/Indicator: TA102, Metabolic Activation: MOUSE LIVER S-9, AROCLOR 1254, Method: PREINCUBATION): inactive; negative
mutagenic call (Test System: AMES SALMONELLA TYPHIMURIUM, Strain/Indicator: TA102, Metabolic Activation: NONE, Method: PREINCUBATION): inactive; negative
mutagenic call (Test System: AMES SALMONELLA TYPHIMURIUM, Strain/Indicator: TA102, Metabolic Activation: RAT, LIVER, S-9, AROCLOR 1254, Method: PREINCUBATION): inactive; negative
mutagenic call (Test System: AMES SALMONELLA TYPHIMURIUM, Strain/Indicator: TA104, Metabolic Activation: MOUSE LIVER S-9, AROCLOR 1254, Method: PREINCUBATION): inactive; negative
mutagenic call (Test System: AMES SALMONELLA TYPHIMURIUM, Strain/Indicator: TA1535, Metabolic Activation: HAMSTER, LIVER, S-9, AROCLOR 1254 (10%), Method: PREINCUBATION): inactive; negative
mutagenic call (Test System: AMES SALMONELLA TYPHIMURIUM, Strain/Indicator: TA1535, Metabolic Activation: HAMSTER, LIVER, S-9, AROCLOR 1254, Method: PREINCUBATION): inactive; negative
mutagenic call (Test System: AMES SALMONELLA TYPHIMURIUM, Strain/Indicator: TA1535, Metabolic Activation: NONE, Method: PREINCUBATION): inactive; negative
mutagenic call (Test System: AMES SALMONELLA TYPHIMURIUM, Strain/Indicator: TA1535, Metabolic Activation: RAT LIVER S-9, PHENOBARBITAL AND BETA-NAPHTHOFLAVONE, Method: PREINCUBATION): inactive; negative
mutagenic call (Test System: AMES SALMONELLA TYPHIMURIUM, Strain/Indicator: TA1535, Metabolic Activation: RAT, LIVER, S-9, AROCLOR 1254 (10%), Method: PREINCUBATION): inactive; negative
mutagenic call (Test System: AMES SALMONELLA TYPHIMURIUM, Strain/Indicator: TA1535, Metabolic Activation: RAT, LIVER, S-9, AROCLOR 1254, Method: PREINCUBATION): inactive; negative
mutagenic call (Test System: AMES SALMONELLA TYPHIMURIUM, Strain/Indicator: TA1537, Metabolic Activation: HAMSTER, LIVER, S-9, AROCLOR 1254 (10%), Method: PREINCUBATION): inactive; negative
mutagenic call (Test System: AMES SALMONELLA TYPHIMURIUM, Strain/Indicator: TA1537, Metabolic Activation: HAMSTER, LIVER, S-9, AROCLOR 1254, Method: PREINCUBATION): inactive; negative
mutagenic call (Test System: AMES SALMONELLA TYPHIMURIUM, Strain/Indicator: TA1537, Metabolic Activation: NONE, Method: PREINCUBATION): inactive; negative
mutagenic call (Test System: AMES SALMONELLA TYPHIMURIUM, Strain/Indicator: TA1537, Metabolic Activation: RAT LIVER S-9, PHENOBARBITAL AND BETA-NAPHTHOFLAVONE, Method: PREINCUBATION): inactive; negative
mutagenic call (Test System: AMES SALMONELLA TYPHIMURIUM, Strain/Indicator: TA1537, Metabolic Activation: RAT, LIVER, S-9, AROCLOR 1254 (10%), Method: PREINCUBATION): inactive; negative
mutagenic call (Test System: AMES SALMONELLA TYPHIMURIUM, Strain/Indicator: TA1537, Metabolic Activation: RAT, LIVER, S-9, AROCLOR 1254, Method: PREINCUBATION): inactive; negative
mutagenic call (Test System: E.COLI, Strain/Indicator: WP2UVRA, Metabolic Activation: NONE, Method: PREINCUBATION): inactive; negative
mutagenic call (Test System: E.COLI, Strain/Indicator: WP2UVRA, Metabolic Activation: RAT LIVER S-9, PHENOBARBITAL AND BETA-NAPHTHOFLAVONE, Method: PREINCUBATION): inactive; negative
mutagenic call (Test System: MOUSE LYMPHOMA, Strain/Indicator: L5178Y (TK+/TK-), Metabolic Activation: NONE, Method: SUSPENSION/PLATE): active; positive

O[C@H]1[C@H]2O[C@H]2c2c(ccc3ccc4ccccc4c23)[C@@H]1O
mutagenic call (Test System: E. COLI, Strain/Indicator: CL101P, Metabolic Activation: NONE, Method: PREINCUBATION): active; positive
mutagenic call (Test System: E. COLI, Strain/Indicator: CL102P, Metabolic Activation: NONE, Method: PREINCUBATION): active; positive
mutagenic call (Test System: E. COLI, Strain/Indicator: CL103P, Metabolic Activation: NONE, Method: PREINCUBATION): active; positive
mutagenic call (Test System: E. COLI, Strain/Indicator: CL104P, Metabolic Activation: NONE, Method: PREINCUBATION): active; positive
mutagenic call (Test System: E. COLI, Strain/Indicator: CL105P, Metabolic Activation: NONE, Method: PREINCUBATION): active; positive
mutagenic call (Test System: E. COLI, Strain/Indicator: CL106P, Metabolic Activation: NONE, Method: PREINCUBATION): active; positive

CC(C)CCC[C@@H](C)[C@H]1CC[C@H]2[C@@H]3CC=C4CCCC[C@]4(C)[C@H]3CC[C@]12C
mutagenic call (Test System: AMES SALMONELLA TYPHIMURIUM, Strain/Indicator: TA97A, Metabolic Activation: NONE, Method: STANDARD PLATE): inactive; negative
mutagenic call (Test System: AMES SALMONELLA TYPHIMURIUM, Strain/Indicator: TA97A, Metabolic Activation: RAT, LIVER, S-9, AROCLOR 1254, Method: STANDARD PLATE): inactive; negative
mutagenic call [1]: inactive; negative
mutagenic call [2]: inactive; negative
mutagenic call (Test System: AMES SALMONELLA TYPHIMURIUM, Strain/Indicator: TA102, Metabolic Activation: NONE, Method: STANDARD PLATE): inactive; negative
mutagenic call (Test System: AMES SALMONELLA TYPHIMURIUM, Strain/Indicator: TA102, Metabolic Activation: RAT, LIVER, S-9, AROCLOR 1254, Method: STANDARD PLATE): inactive; negative
mutagenic call (Test System: AMES SALMONELLA TYPHIMURIUM, Strain/Indicator: TA104, Metabolic Activation: NONE, Method: STANDARD PLATE): inactive; negative
mutagenic call (Test System: AMES SALMONELLA TYPHIMURIUM, Strain/Indicator: TA104, Metabolic Activation: RAT, LIVER, S-9, AROCLOR 1254, Method: STANDARD PLATE): inactive; negative
